Test results taken from US7645882B2, “Inhibitor of protein modification products formation” (priority 2003, dated 2010).

Tested on: pentosidine
Test: Pentosidine production inhibiting effect with BSA and arabinose
Format: biochemical
Details: BSA and arabinose instead of plasma
Method: Fresh heparinized plasma samples were obtained after informed consent from hemodialysis patients prior to the dialysis session, and filtrated and sterilized. To the plasma (450 μL), there was added the solution of TM-2002 in dimethylsurphoxide (50 μL) (final concentration: 0.8, 2.0, 5.0 mM) incubated at 37° C. for one week. Then, the amount of pentosidine was measured.
Measurement of the amount of pentosidine was made as follows: to each incubated sample (50 μL) was added an equal volume of 10% trichloroacetic acid, followed by centrifugation at 5000 g for 5 minutes; after removal of the supernatant, the pellet was washed by 5% trichloroacetic acid (300 μL); the pellet was dried under reduced pressure and then subjected to hydrolysis in 6N HCl solution (100 μL) at 110° C. under nitrogen atmosphere for 16 hours; to the hydrolysate, 5N NaOH (100 μL) and 0.5 M phosphate buffer (pH 7.4) (200 μL) were added, followed by filtration through a porefilter with a pore size of 0.5 μm and dilution with PBS. The concentration of free pentosidine was determined by reversed-phase HPLC using a fluorescence detector (Miyata, T. et al.: Proc. Natl. Acad. Sci. USA, Vol. 93, p. 2353-2358, 1996). The effluent was monitored at 335/385 nm of excitation/emission wavelength. Synthetic pentosidine was used as the standard. The detection limit of pentosidine was 0.1 pmol/mg protein.
The plasma from patients was substituted to BSA and arabinose, and the pentosidine production inhibiting effect of another compounds (I) or (II) was measured in the same manner as [Test Examination 1]. Therein, “-” means that the examination was not carried out.

With `CC1=NN(c2ccccc2)C(=O)C1CCC(=O)O` (centres unmarked) [compound 7, 3-(3-methyl-5-oxo-1-penyl-4,5-dihydro-1H-pyrazol-4-yl)-propionic acid] the “Pentosidine production rate in 5 mM of medicament (%)” value (shortened to “Pentosidine production rate … (%)”) was 64.64%.

For `CC1=NN(c2ccccc2)C(=O)C1C(c1ccccc1)c1c(C)nn(-c2ccccc2)c1O` (centres unmarked) [compound 9, 4-[(5-hydroxy-3-methyl-1-phenyl-1H-pyrazol-4-yl)-phenyl-methyl]-5-methyl-2-phenyl-2,4-dihydro-pyrazol-3-one], the “Pentosidine production rate … (%)” value was 7.52%.

`CC(=O)NC1C(=O)N(c2ccccc2)N=C1C` (centres unmarked) [compound 12, N-(3-methyl-5-oxo-1-phenyl-4,5-dihydro-1H-pyrazol-4-yl)-acetamide] was tested, and the “Pentosidine production rate … (%)” value was 54.21%.

With `CC1=NN(c2cccc([N+](=O)[O-])c2)C(=O)C1Sc1nnnn1-c1ccccc1` (centres unmarked) [compound 13, 5-methyl-2-(3-nitro-phenyl)-4-(1-phenyl-1H-tetrazol-5-yl-sulfanil)-2,4-dihydro-pyrazol-3-one] the “Pentosidine production rate … (%)” value was 74.66%.

In the case of `O=C(NC1=NN(c2ccccc2)C(=O)C1Sc1nnnn1-c1ccccc1)c1ccccc1` (centres unmarked) [compound 14, N-[5-oxo-1-phenyl-4-(1-phenyl-1H-tetrazol-5-yl-sulfanil)-4,5-dihydro-1H-pyrazol-3-yl]-benzamide], the “Pentosidine production rate … (%)” value is reported as 61.27%.

With `CC1=NN(c2ccccc2)C(=O)C1C1C(=O)N(c2ccccc2)N=C1C` (centres unmarked) [compound 17, 5,5′-dimethyl-2,2′-diphenyl-2,4,2′,4′-tetrahydro-[4,4′]-bipyrazol-3,3′-dione] the “Pentosidine production rate … (%)” value was 60.96%.

`COc1ccc(-c2csc(SC3C(=O)N(c4ccccc4)N=C3C)n2)cc1` (centres unmarked) [compound 19, 4-[4-(4-methoxy-phenyl)-thiazole-2-yl-sulfanil]-5-methyl-2-phenyl-2,4-dihydro-pyrazol-3-one] was tested, and the “Pentosidine production rate … (%)” value was 40.19%.

In the case of `CCCC1=NN(c2ccccc2)C(=O)C1CC(=O)c1ccccc1` (centres unmarked) [compound 20, 4-(2-oxo-2-phenyl-ethyl)-2-phenyl-5-propyl-2,4-dihydro-pyrazol-3-one], the “Pentosidine production rate … (%)” value is reported as 83.12%.

With `CC1=NN(c2ccccc2)C(=O)C1Sc1nc(-c2ccc(C)cc2)cs1` (centres unmarked) [compound 21, 5-methyl-2-phenyl-4-(4-p-toluyl-thiazole-2-yl-sulfanil)-2,4-dihydro-pyrazol-3-one] the “Pentosidine production rate … (%)” value was 42.07%.

`CC1=NN(c2ccc(F)cc2)C(=O)C1C(c1ccccc1O)c1c(C)nn(-c2ccc(F)cc2)c1O` (centres unmarked) [compound 22, 2-(4-fluoro-phenyl)-4-[[1-(4-fluoro-phenyl)-5-hydroxy-3-methyl-1H-pyrazol-4-yl]-(2-hydroxy-phenyl)-methyl]-5-methyl-2,4-dihydro-pyrazol-3-one] was tested, and the “Pentosidine production rate … (%)” value was 2.9%.

With `CC1=NN(c2ccccc2)C(=O)C1(O)S(=O)(=O)[O-].[Na+]` (centres unmarked) [compound 25, sodium; 4-hydroxy-3-methyl-5-oxo-1-phenyl-4,5-dihydro-1H-pyrazol-4-sulfonate] the “Pentosidine production rate … (%)” value was 38.80%.

`CC1=NN(c2ccccc2)C(=O)C1(N1CCOCC1)N1CCOCC1` [compound 26, 5-methyl-4,4-di-morpholin-4-yl-2-phenyl-2,4-dihydro-pyrazol-3-one] was tested, and the “Pentosidine production rate … (%)” value was 50.68%.

With `O=C(NC1=NN(c2ccccc2)C(=O)C1(O)S(=O)(=O)[O-])c1ccccc1.[Na+]` (centres unmarked) [compound 27, sodium 3-benzoylamino-4-hydroxy-5-oxo-1-phenyl-4,5-dihydro-1H-pyrazol-4-sulfonate] the “Pentosidine production rate … (%)” value was 2.83%.

With `CC1=NN(c2ccccc2)C(=O)C12Sc1ccccc1C2=O` (centres unmarked) [compound 28, 3-methyl-1-phenyl-5-oxo-4-spiro-(3-oxo-2,3-dihydro-benzo[b]thiophen-2-yl)-4,5-dihydro-1H-pyrazol] the “Pentosidine production rate … (%)” value was 22.83%.

With `CC1=NN(c2ccccc2)C(=O)C12C(c1ccccc1)C21C(=O)N(c2ccccc2)N=C1C` (centres unmarked) [compound 30, 4,10-dimethyl-2,8,11-triphenyl-2,3,8,9-tetraza-dispiro[4.0.4.1]undeca-3,9-diene-1,7-dione] the “Pentosidine production rate … (%)” value was 62.43%.

With `CCOc1cc(/C=C2/C(=O)N(c3ccccc3Cl)N=C2C)ccc1O` [compound 31, 2-(2-chloro-phenyl)-4-(3-ethoxy-4-hydroxy-benzylidene)-5-methyl-2,4-dihydro-pyrazol-3-one] the “Pentosidine production rate … (%)” value was 15.57%.

In the case of `CC1=NN(c2ccccc2Cl)C(=O)/C1=C/c1ccc(N(C)C)cc1` [compound 32, 2-(2-chloro-phenyl)-4-(4-dimethylamino-benzylidene)-5-methyl-2,4-dihydro-pyrazol-3-one], the “Pentosidine production rate … (%)” value is reported as 8.7%.

With `CC1=NN(c2cccc(C(F)(F)F)c2)C(=O)/C1=C/C=C/c1ccccc1` [compound 33, 5-methyl-4-(3-phenyl-allylidene)-2-(3-trifluoromethyl-phenyl)-2,4-dihydro-pyrazol-3-one] the “Pentosidine production rate … (%)” value was 80.08%.

In the case of `CC1=NN(c2cccc(F)c2)C(=O)/C1=C\c1ccc(N(C)C)cc1` [compound 35, 4-(4-dimethylamino-benzylidene)-2-(3-fluoro-phenyl)-5-methyl-2,4-dihydro-pyrazol-3-one], the “Pentosidine production rate … (%)” value is reported as 76.31%.

With `CC1=NN(c2cccc(C(=O)O)c2)C(=O)/C1=C\c1ccc(N2CCC(Cl)=N2)cc1` [compound 36, 3-{4-[4-(3-chloro-4,5-dihydro-pyrazol-1-yl)-benzylidene]-3-methyl-5-oxo-4,5-dihydro-pyrazol-1-yl}-benzoic acid] the “Pentosidine production rate … (%)” value was 26.37%.

With `O=C(O)c1cccc(N2N=C(c3ccccc3)/C(=C/c3ccccc3O)C2=O)c1` [compound 37, 3-[4-(2-hydroxy-benzylidene)-5-oxo-3-phenyl-4,5-dihydro-pyrazol-1-yl]-benzoic acid] the “Pentosidine production rate … (%)” value was 0.02%.

With `CC1=NN(c2cccc(Cl)c2)C(=O)/C1=C/c1cc2ccccc2[nH]c1=O` [compound 38, 3-[1-(3-chloro-phenyl)-3-methyl-5-oxo-1,5-dihydro-pyrazol-4-ylidene-methyl]-1H-quinolin-2-one] the “Pentosidine production rate … (%)” value was 84.95%.

`COC(=O)c1cccc(-c2ccc(/C=C3\C(=O)N(c4ccc(S(N)(=O)=O)cc4)N=C3C)o2)c1` [compound 39, 3-{5-[3-methyl-5-oxo-1-(4-sulfamoyl-phenyl)-1,5-dihydro-pyrazol-4-ylidene-methyl]-furan-2-yl}-benzoic acid-methyl ester] was tested, and the “Pentosidine production rate … (%)” value was 16.87%.

With `COC(=O)c1ccc(N2N=C(C)/C(=C/c3ccc4c(c3)OCO4)C2=O)cc1` [compound 40, 4-(4-benzo[1,3]dioxol-5-ylmethylene-3-methyl-5-oxo-4,5-dihydro-pyrazol-1-yl)-benzoic acid-methyl ester] the “Pentosidine production rate … (%)” value was 32.37%.

For `COC(=O)c1ccc(N2N=C(C)/C(=C/c3ccc(-c4ccc(S(N)(=O)=O)cc4)o3)C2=O)cc1` [compound 41, 4-{3-methyl-5-oxo-4-[5-(4-sulfamoyl-phenyl)-furan-2-yl-methylene]-4,5-dihydro-pyrazol-1-yl}-benzoic acid-methyl ester], the “Pentosidine production rate … (%)” value was 37.81%.

For `CC1=NN(c2ccc(Cl)cc2)C(=O)/C1=C/c1ccc(O)cc1O` [compound 42, 2-(4-chloro-phenyl)-4-(2,4-dihydroxy-benzylidene)-5-methyl-2,4-dihydro-pyrazol-3-one], the “Pentosidine production rate … (%)” value was 68.32%.

In the case of `CC1=NN(c2ccc(Cl)cc2)C(=O)/C1=C/c1cccc(O)c1` [compound 43, 2-(4-chloro-phenyl)-4-(3-hydroxy-benzylidene)-5-methyl-2,4-dihydropyrazol-3-one], the “Pentosidine production rate … (%)” value is reported as 3.00%.

`CC1=NN(c2ccc(C)cc2)C(=O)/C1=C/c1ccc(O)c(O)c1` [compound 44, 4-(3,4-dihydroxy-benzylidene)-5-methyl-2-p-toluyl-2,4-dihydro-pyrazol-3-one] was tested, and the “Pentosidine production rate … (%)” value was 66.19%.

For `CC(=O)c1ccc(N2N=C(C)/C(=C3\C(=O)Nc4ccccc43)C2=O)cc1` [compound 45, 3-[1-(4-acetyl-phenyl)-3-methyl-5-oxo-1,5-dihydro-pyrazol-4-ylidene]-1,3-dihydro-indol-2-one], the “Pentosidine production rate … (%)” value was 19.22%.

For `CC1=NN(c2ccc(F)cc2)C(=O)/C1=C\c1c(C)nn(-c2ccccc2C)c1O` [compound 46, 2-(4-fluoro-phenyl)-4-(5-hydroxy-3-methyl-1-o-toluyl-1H-pyrazol-4-yl-methylene)-5-methyl-2,4-dihydro-pyrazol-3-one], the “Pentosidine production rate … (%)” value was 15.69%.

`COc1cc(/C=C2\C(=O)N(c3ccc(Cl)cc3)N=C2C(F)(F)F)ccc1O` [compound 47, 2-(4-chloro-phenyl)-4-(4-hydroxy-3-methoxy-benzylidene)-5-trifluoromethyl-2,4-dihydro-pyrazol-3-one] was tested, and the “Pentosidine production rate … (%)” value was 28.86%.

For `CCc1ccc(N2N=C(C)/C(=C\c3ccc(O)cc3)C2=O)cc1` [compound 48, 2-(4-ethyl-phenyl)-4-(4-hydroxy-benzylidene)-5-methyl-2,4-dihydro-pyrazol-3-one], the “Pentosidine production rate … (%)” value was 0.02%.
